This note sets out measurements from patent publication US7741348B2, “Bisheterocycle tandem compounds useful as antiviral agents, the uses thereof and the compositions comprising such compounds” (Shanghai Institute of Materia Medica, Chinese Academy of …, priority 2005, dated 2010).

Data set [1] concerns Vero (African green monkey kidney) cells. The data set is described as follows: 50% toxicity concentration in the anti-herpes virus screen (Vero cells). As to conditions: 50% toxity concentration, Table 3-1 (herpes virus screen, Vero cells).
The next data set deals with influenza A virus. In words: Anti influenza A virus activity, cytopathic effect (CPE) in MDCK cells. It is filed as cell-based. From the text: (§1) 4. Screening of the samples for the anti-influenza virus A and B activity: MDCK (canine kidney) cells were used as the virus host to test the inhibition effect of the compounds of the present invention on the cytopathic effect (CPE) of the cells caused by the virus.
For orientation: Damage to the host cells serves as the signal in cytopathic effect assays.

The test system of another data set is herpes virus II (HSV-II). In words: Anti herpes virus II activity, cytopathic effect in Vero cells. As to conditions: read-out: Anti herpes virus II HSV-II (IC50). In kind it is cell-based. From the text: (§2) 3. Screening of the compounds for the anti-herpes virus I and II activity: Vero (African green monkey kidney) cells were used as virus host to test the inhibition effect of the compounds of the present invention on the cytopathic effect of the Vero cells caused by Herpes virus I and II.

Data set [2] relates to hepatitis B virus (HBV). In words: HBsAg secretion in HepG2.2.15 culture supernatant (ELISA). It is filed as cell-based. As to conditions: HepG2.2.15 supernatant, eighth day, read-out: HBsAg secreation IC50. From the text: (§3) Hepatitis B virus (HBV) transgenic human hepatoma carcinoma cell, HepG2.2.15 cell line, can secrete hepatitis B virus particles (containing antigen and DNA) into supernatant when being cultured.
(§4) Under action of antiviral drugs, the contents of HBsAg, HBeAg and viral DNA secreted from cells into the supernatant were detected and are compared with the contents of control groups without drugs, so that the antiviral activity of the compounds of the present invention can be measured as well as the cytotoxic effect of compounds of the present invention. The value concentration of the compounds of the present invention which caused 50% of cells dead and was measured with MTT method was CC50; and the value concentration of the compounds of the present invention which inhibited the secretion of HBsAg and HBeAg detected by ELISA method and inhibited 50% of viral DNA replication detected by fluorescent quantification PCR method was IC50.
(§5) HepG2.2.15 cells were inoculated on a 96-well plate, and the compounds of the present invention were added next day. The medium and the compound solutions of the same concentration were renewed periodically. The culture supernatants were collected on the eighth day to be detected. MTT was added to the cells on the 96-well plate, and MTT dissolving liquid was added after 4 hours to be reacted overnight. OD570 was measured next day on microplate reader. And the cytotoxicity of the compounds of the present invention to the HepG2.2.15 cells, the effect of the compounds of the present invention on the growth of the cells, and the concentration of the compound of the present invention (CC50) causing 50% of the cells dead were estimated according to the OD values.
(§6) HBsAg and HBeAg were detected with assaying kits (purchased from Sino-American biotechnological company). Samples were added to the coated strip plate, and the same amount of enzyme labeled conjugate was added, after reacting under 37° C. for 1 hour, the plate was washed 5 times. Colorant solutions A and B were added, and the reaction was stopped after 15 minutes, and OD450/630 was measured. The half inhibition rate IC50 of the sample for the HBV antigen was calculated according to the OD values.
In general terms: In an ELISA, binding on a coated surface is turned into a signal by an enzyme label.

Data set [3] concerns hepatitis B virus (HBV). In words: HBeAg secretion in HepG2.2.15 culture supernatant (ELISA). It is filed as cell-based. As to conditions: HepG2.2.15 supernatant, eighth day, read-out: HBeAg secreation IC50.
Text: as §3, §4, §5, §6

Data set [4] can be described thus: Cytotoxicity to HepG2.2.15 cells (MTT method). In kind it is cell-based. As to conditions: human, HepG2.2.15 cells (HBV-transgenic human hepatoma cells), 50% death concentration, eighth day.
Text: as §3, §4, §5

Data set [5] deals with MDCK (canine kidney) cells. In words: 50% toxicity concentration in the anti-influenza screen (MDCK cells). It is filed as cell-based. As to conditions: 50% toxity concentration, Table 3-2 (influenza screen, MDCK cells).
Text: as §1

The target of a further data set is T1, HIV-1 integrase (Human immunodeficiency virus type 1 group M subtype B, UniProt P04585).
T1 construct: purified HIV-1 integrase
The data set is described as follows: HIV-1 integrase inhibition (ELISA, chain transfer). In kind it is biochemical. As to conditions: enzyme inhibition. Here is the method:
2. Screening of the compounds for the anti HIV-1 integrase activity: the synthesized 30 oligonucleotide (5′P-[…]-3′,3′-[…]-5′) was used as donor substrate, and the synthesized 20 oligonucleoside (5′-[…]-3′-biotin, biotin-3′-[…]-5′) was used as target substrate. On a 96-well plate, the donor substrate was added with purified HIV-1 integrase to conduct ELISA reaction. The product of chain transfer of target DNA was detected and stained in the biotin labeled alkaline phosphatase system, OD values were measured with microplate reader. Addition of the compounds of the present invention in the reaction system can be used to screen the inhibitor of the enzyme.

For the next data set, the target named is HIV-1 protease (Human immunodeficiency virus type 1 group M subtype B, UniProt P04585). In words: HIV-1 protease inhibition. It is filed as biochemical.
Another data set has as its system herpes virus I (HSV-I). The data set is described as follows: Anti herpes virus I activity, cytopathic effect in Vero cells. It is filed as cell-based. As to conditions: read-out: Anti herpes virus I HSV-I (IC50).
Text: as §2

Setting [6] is: Human alphaherpesvirus 2, Vero cells, cytopathic effect.

pIC50: −log10 of the molar value. Converted amounts (≈) assume the structure as drawn. Like-named read-outs stand apart in the source and are kept apart here.

For the molecule `COC(=O)c1coc([C@H](C)NC(=O)c2nc(-c3csc([C@@H](NC(=O)C4CCCC4)C(C)C)n3)oc2C)n1` [Wang529.61-1], the TC50 in data set [1] was determined as 198.43 µg/mL (≈ 375 µM); in data set [5], 191.74 µg/mL (≈ 362 µM). The half-inhibitory concentration (IC50) (usually the midpoint of a concentration-inhibition curve) in the data set on influenza A virus worked out at 3.15 µg/mL (≈ 5.95 µM); in the data set with herpes virus II (HSV-II) (setting [6]), 107 µg/mL (≈ 201 µM). Further, the pIC50 (as a rule, −log10 of the IC50, conventionally taken in molar units) is 3.67 in the data set with hepatitis B virus (HBV) [2] and 3.77 in the data set on hepatitis B virus (HBV) [3]. The cytotoxic concentration (CC50) (usually the concentration at which the toxic effect on the cells reaches its halfway point) in data set [4] came out at 472 µM.
Regarding `COC(=O)c1nc(-c2csc([C@@H](NC(=O)c3ccccc3)C(C)C)n2)oc1C` [Wang 399.46], the pIC50 against HIV-1 integrase was 3.44. Also, the IC50 in the data set with influenza A virus came to 1.14 µg/mL (≈ 2.85 µM). In addition, in data set [5], the TC50 amounted to 166.67 µg/mL (≈ 417 µM).
In the case of `COC(=O)c1nc(-c2csc([C@@H](NC(=O)c3csc([C@@H](NC(=O)OC(C)(C)C)C(C)C)n3)C(C)C)n2)oc1C` [Wang 577.72], the TC50 in data set [1] was found to be 176.78 µg/mL (≈ 306 µM). The IC50 with herpes virus II (HSV-II) (setting [6]) was 97.6 µg/mL (≈ 169 µM). For the same molecule, the pIC50 on HIV-1 protease is 4.24.
With `COC(=O)c1nc(-c2csc([C@@H](NC(=O)COCc3ccccc3)C(C)C)n2)oc1C` [Wang 443.52], the TC50 is 168.24 µg/mL (≈ 379 µM) in [1] and 165.86 µg/mL (≈ 374 µM) in [5]. Further, the concentration for half-maximal inhibition (IC50) amounted to 1.29 µg/mL (≈ 2.91 µM) in the data set on influenza A virus; 78.8 µg/mL (≈ 178 µM) in the data set with herpes virus II (HSV-II) (Human alphaherpesvirus 2, Vero); 107 µg/mL (≈ 240 µM) in the data set with herpes virus I (HSV-I) (Human alphaherpesvirus 1, Vero).
Regarding `COC(=O)c1nc(-c2csc([C@@H](NC(=O)C3CC3)C(C)C)n2)oc1C` [Wang363.43-1], the TC50 in [1] is 707.11 µg/mL (≈ 1950 µM); in [5], 500 µg/mL (≈ 1380 µM). For the same molecule, the concentration for half-maximal inhibition (IC50) in the data set with influenza A virus is 3.97 µg/mL (≈ 10.9 µM); with herpes virus I (HSV-I) (Human alphaherpesvirus 1, Vero cells, cytopathic effect) it was 369 µg/mL (≈ 1020 µM).
As to `COC(=O)c1nc(-c2csc([C@@H](NC(=O)c3cccc(F)c3)C(C)C)n2)oc1C` [Wang417.46-P], the results for the TC50 in data set [1] and in [5] were 198.43 µg/mL (≈ 475 µM) and 422.43 µg/mL (≈ 1010 µM), respectively. Also, the figures for the IC50 with influenza A virus and in the data set on herpes virus II (HSV-II) (setting [6]) were 0.9 µg/mL (≈ 2.16 µM) and 107 µg/mL (≈ 255 µM), respectively.
